# ChEMBL document CHEMBL4190380, “Preliminary in vitro and in vivo investigation of a potent platelet derived growth factor receptor (PDGFR) family kinase inhibitor” (Bioorg Med Chem Lett, 2018)
# The source made the active and inactive calls. No cut-off for these calls is given here.
# Legend:
# Mus musculus [1] = experiment: Toxicity in C57BL/6 mouse assessed as induction of mouse mortality at 400 mg/kg, ip for 17 days measured on day 0; assay type: organism-based; conditions: in vivo, 408 h
# Mus musculus [2] = experiment: Toxicity in C57BL/6 mouse assessed as body weight loss at 75 mg/kg, ip for 17 days; assay type: organism-based; conditions: in vivo, 408 h
# P815 [3] = experiment: Toxicity in mouse P815 cells expressing KIT D814Y mutant assessed as reduction in total STAT3 protein level at 5 uM by Western blot method; assay type: cell-based; conditions: p815, 5 µM
# P815 [4] = experiment: Cytotoxicity in mouse P815 cells expressing KIT D814Y mutant assessed as reduction in cell viability incubated for 48 hrs by MTT assay; assay type: functional, cell-based; conditions: P815, 48 h
# [5] = biological target: Platelet-derived growth factor receptor beta (Homo sapiens, UniProt P09619); experiment: Binding affinity to PDGFRbeta (unknown origin)
# Chain of Platelet-derived growth factor receptor beta (P09619 whole entry): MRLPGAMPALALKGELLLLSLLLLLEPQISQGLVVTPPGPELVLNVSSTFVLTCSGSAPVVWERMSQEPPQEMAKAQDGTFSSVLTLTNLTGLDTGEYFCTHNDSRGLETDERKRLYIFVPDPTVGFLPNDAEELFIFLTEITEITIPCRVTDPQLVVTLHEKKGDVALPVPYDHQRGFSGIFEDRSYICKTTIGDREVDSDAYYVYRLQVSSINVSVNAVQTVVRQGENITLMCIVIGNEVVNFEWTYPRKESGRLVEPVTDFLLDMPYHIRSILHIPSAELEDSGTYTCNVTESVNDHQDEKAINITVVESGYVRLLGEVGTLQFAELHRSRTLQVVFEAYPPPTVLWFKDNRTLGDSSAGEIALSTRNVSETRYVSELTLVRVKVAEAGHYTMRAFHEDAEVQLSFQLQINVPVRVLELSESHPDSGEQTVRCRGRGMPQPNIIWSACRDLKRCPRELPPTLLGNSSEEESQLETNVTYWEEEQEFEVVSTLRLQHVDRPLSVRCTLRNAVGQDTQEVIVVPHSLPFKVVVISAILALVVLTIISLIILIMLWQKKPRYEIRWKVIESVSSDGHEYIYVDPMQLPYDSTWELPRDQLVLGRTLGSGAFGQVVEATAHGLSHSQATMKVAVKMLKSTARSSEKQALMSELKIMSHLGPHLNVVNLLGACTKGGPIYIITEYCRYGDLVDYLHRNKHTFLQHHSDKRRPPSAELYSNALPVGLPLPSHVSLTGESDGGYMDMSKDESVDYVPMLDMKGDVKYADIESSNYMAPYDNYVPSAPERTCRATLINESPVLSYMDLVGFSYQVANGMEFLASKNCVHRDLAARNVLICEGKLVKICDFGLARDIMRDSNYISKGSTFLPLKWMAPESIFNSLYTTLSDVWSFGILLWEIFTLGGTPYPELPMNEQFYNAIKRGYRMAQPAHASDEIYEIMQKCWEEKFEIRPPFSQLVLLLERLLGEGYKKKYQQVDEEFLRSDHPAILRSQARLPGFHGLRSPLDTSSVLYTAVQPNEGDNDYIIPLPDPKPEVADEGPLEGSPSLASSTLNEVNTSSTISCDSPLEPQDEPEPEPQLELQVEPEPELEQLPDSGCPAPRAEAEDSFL
# Mus musculus [6] = experiment: In-vivo suppression of PDGFR signalling in C57BL/6 mouse assessed as retardation of hair re-growth at 75 mg/kg, ip administered once daily for 17 days by photography; assay type: functional, organism-based
# [7] = test system: Mast/stem cell growth factor receptor Kit (Mus musculus), P05532 [D814Y]; experiment: Inhibition of KIT D814Y mutant in mouse P815 cells assessed as reduction in STAT3 Tyr705 phosphorylation at 500 nM to 5 uM by Western blot method; assay type: cell-based
# Chain of Mast/stem cell growth factor receptor Kit (Mus musculus), P05532 [D814Y] (P05532 with tags, fused parts or gaps D814Y): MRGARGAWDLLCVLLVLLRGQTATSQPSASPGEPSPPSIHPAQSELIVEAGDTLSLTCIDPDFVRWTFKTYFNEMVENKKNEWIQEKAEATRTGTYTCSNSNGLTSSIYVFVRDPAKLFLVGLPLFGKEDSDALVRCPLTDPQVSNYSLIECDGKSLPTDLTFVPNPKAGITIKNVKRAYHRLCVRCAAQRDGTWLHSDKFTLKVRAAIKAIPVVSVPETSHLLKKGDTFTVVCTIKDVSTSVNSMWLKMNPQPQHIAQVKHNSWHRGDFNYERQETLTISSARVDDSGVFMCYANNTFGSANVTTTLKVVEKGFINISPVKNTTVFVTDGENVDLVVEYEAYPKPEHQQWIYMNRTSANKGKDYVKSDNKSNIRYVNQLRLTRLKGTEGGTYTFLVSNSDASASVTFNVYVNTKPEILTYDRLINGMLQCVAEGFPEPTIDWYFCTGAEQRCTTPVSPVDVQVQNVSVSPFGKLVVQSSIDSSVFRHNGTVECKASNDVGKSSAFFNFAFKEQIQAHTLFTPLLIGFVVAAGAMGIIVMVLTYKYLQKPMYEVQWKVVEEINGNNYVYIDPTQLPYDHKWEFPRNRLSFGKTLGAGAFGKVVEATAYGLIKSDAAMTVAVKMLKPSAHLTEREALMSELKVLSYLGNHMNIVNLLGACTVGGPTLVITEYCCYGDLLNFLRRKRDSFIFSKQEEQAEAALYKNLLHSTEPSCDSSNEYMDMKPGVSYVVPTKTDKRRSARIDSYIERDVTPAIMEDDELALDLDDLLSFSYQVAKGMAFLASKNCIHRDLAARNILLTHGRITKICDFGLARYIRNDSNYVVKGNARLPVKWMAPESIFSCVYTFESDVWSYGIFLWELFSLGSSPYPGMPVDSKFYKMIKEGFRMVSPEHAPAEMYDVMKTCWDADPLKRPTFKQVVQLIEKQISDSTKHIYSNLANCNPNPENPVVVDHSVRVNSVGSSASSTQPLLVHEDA
# P815 [8] = experiment: Induction of apoptosis in mouse P815 cells expressing KIT D814Y mutant assessed as reduction in pro-caspase-3 protein level at 500 nM to 5 uM by Western blot method; assay type: functional, cell-based
# Mus musculus [9] = experiment: In-vivo suppression of KIT signalling in C57BL/6 mouse assessed as hair depigmentation at 75 mg/kg, ip administered once daily for 17 days by photography; assay type: functional, organism-based
SMILES,Activity (Mus musculus [1]),Activity (Mus musculus [2]) [%],Activity (P815 [3]),IC50 (P815 [4]) [nM],Kd [5] [nM],Activity (Mus musculus [6]),inhibition [7],Activity (P815 [8]),Activity (Mus musculus [9])
COCCOc1cc2ncnc(N3CCN(c4ncc(Cc5ccccc5)cn4)CC3)c2cc1OCCOC,Toxic,10,Toxic,182,8,Active,Active,Dose-dependent effect,inactive
COc1cc2c(N3CCN(C(=O)Nc4ccc(OC(C)C)cc4)CC3)ncnc2cc1OCCCN1CCCCC1 [TANDUTINIB],–,–,–,600,–,–,–,–,–
